# Experimental data taken from US10993983B2, “Cyclic peptide epitopes and small-molecule mimics for inducing autophagy” (TRUSTEES OF TUFTS COLLEGE, priority 2016, dated 2021).
# Marks after values point to notes of the source that are not given here. Where no end group is shown, it is not given here.
# Test system: p62
# Assay: p62 degradation assay (p62/actin immunoblot);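 as to Activity (μM) 10, p62/actin assay activity: HeLa cells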;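 as to Activity (μM) 100, p62/actin assay activity: HeLa cells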;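 as to Activity (μM) 20, p62/actin assay activity: HeLa cells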;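 as to Activity (μM) 30, p62/actin assay activity: HeLa cells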;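 as to Activity (μM) 50, p62/actin assay activity: HeLa cells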
# Format: cell-based
# Set-up: key: −: activity not reported; 0: decreased vs. WT; +: similar to WT; ++: modest increase vs. WT; +++: significant increase vs. WT
# Settings: 5 μM; Table 8, control compound T25; first symbol
# Experimental: (§1) Cells were treated with peptide in OPTI-MEM (Thermo Scientific) acidified with 0.15% (v/v) 6N HCl for 3 hour. Cells were rinsed with Dulbecco's phosphate buffered saline (PBS) and lysed in lysis buffer (20 mM HEPES, 150 mM NaCl, 1 mM EDTA, 1% Triton X-100, protease inhibitor cocktail (Roche) on ice for 1 hour. Cell lysates were centrifuged at 16,000 g for 10 min at 4° C. and analyzed by SDS-PAGE and transferred to PVDF membranes. The membranes were blocked 5% non-fat dry milk (NFDM) in PBST (PBS+0.05% Tween-20) for 1 hour, then incubated overnight at 4° C. with primary antibody in 5% NFDM in PBST. The blots were washed with PBST and incubated with HRP-conjugated secondary antibodies diluted in 5% NFDM in PBST for 1 hour at room temperature. Membranes were washed with PBST and visualized with SuperSignal West Pico Chemiluminescent Substrate (Thermo Scientific). Semi-quantitative results were obtained by noting the lowest concentration at which both p62 degradation and LC3-I to LC3-II conversion were observed.
# (§2) Compounds 1-10 were evaluated using the assays described in Examples 4 and 5. Activity for each compound was measured in the p62 degradation assay and the LC3 marker assay as described herein. The activity at each concentration of peptide is given as, for example, (0/+) where 0 would be the p62/actin assay activity and + would be the LC3 assay activity.
row,Sequence,"Activity (μM) 5, p62/actin assay activity"
1,VCNATCHIWH [Compound 34],0/0

# Same assay, conditions: 10 μM; Table 3, control vehicle; first symbol of cell
row,Sequence,"Activity (μM) 10, p62/actin assay activity"
1,VCNACFHIWH [Compound 4],0/0
2,"VWNATFHIWHD (not fully specified (N-terminus, C-terminus)) [Compound 6, likely pa-11mer]",0/0
3,"YGRKKRRQRRRGGVWNATFHIWHD [7] (Ac-YGRKKRRQRRRGGVWNATFHIWHD-NH2) [Compound 7, likely Tat-11mer]",0

# Same assay, conditions: 10 μM; Table 6, control DMSO; first symbol
row,Sequence,"Activity (μM) 10, p62/actin assay activity"
1,VCNATCHIWH [Compound 21],++
2,VCNATCHIWH [Compound 18],0/0
3,VCNATCHIWH [Compound 23],+
4,VCNATCHIWH [Compound 20],++/++

# Same assay, conditions: 10 μM; Table 8, control compound T25; first symbol
row,Sequence,"Activity (μM) 10, p62/actin assay activity"
1,VCNATCHIWH [Compound 34],0/0
2,VCNATCHIWH [Compound 35],0/0
3,"VWNATFHIWHD [63] (not fully specified (N-terminus, C-terminus)) [Compound 63]",0
4,VCNACFHIWH [Compound 56],0/0

# Same assay, conditions: 20 μM; Table 3, control vehicle; first symbol
row,Sequence,"Activity (μM) 20, p62/actin assay activity"
1,VCNACFHIWH [Compound 4],0/0
2,"VWNATFHIWHD (not fully specified (N-terminus, C-terminus)) [Compound 6, likely pa-11mer]",0/0
3,"YGRKKRRQRRRGGVWNATFHIWHD [7] (Ac-YGRKKRRQRRRGGVWNATFHIWHD-NH2) [Compound 7, likely Tat-11mer]",+++/+++

# Same assay, conditions: 30 μM; Table 6, control DMSO; first symbol
row,Sequence,"Activity (μM) 30, p62/actin assay activity"
1,VCNATCHIWH [Compound 21],+++
2,VCNATCHIWH [Compound 18],0/0
3,VCNATCHIWH [Compound 23],++/++
4,VCNATCHIWH [Compound 20],+++

# Same assay, conditions: 30 μM; Table 7, control compound T25; first symbol
row,Sequence,"Activity (μM) 30, p62/actin assay activity"
1,VCNACFHIWH [Compound 4],0/0

# Same assay, conditions: 30 μM; Table 8, control compound T25; first symbol
row,Sequence,"Activity (μM) 30, p62/actin assay activity"
1,VCNATCHIWH [Compound 34],+
2,VCNATCHIWH [Compound 35],0
3,"VWNATFHIWHD (not fully specified (N-terminus, C-terminus)) [Compound 6, likely pa-11mer]",0/0
4,VCNACFHIWH [Compound 56],+

# Same assay, conditions: 50 μM; Table 3, control vehicle; first symbol
row,Sequence,"Activity (μM) 50, p62/actin assay activity"
1,VCNACFHIWH [Compound 4],0/0
2,"VWNATFHIWHD (not fully specified (N-terminus, C-terminus)) [Compound 6, likely pa-11mer]",0/0

# Same assay, conditions: 50 μM; Table 6, control DMSO; first symbol
row,Sequence,"Activity (μM) 50, p62/actin assay activity"
1,VCNATCHIWH [Compound 21],+++
2,VCNATCHIWH [Compound 18],0/0
3,VCNATCHIWH [Compound 23],+++
4,VCNATCHIWH [Compound 20],+++

# Same assay, conditions: 50 μM; Table 7, control compound T25; first symbol
row,Sequence,"Activity (μM) 50, p62/actin assay activity"
1,VCNACFHIWH [Compound 4],++/++

# Same assay, conditions: 50 μM; Table 8, control compound T25; first symbol
row,Sequence,"Activity (μM) 50, p62/actin assay activity"
1,VCNATCHIWH [Compound 34],+++/+++
2,VCNATCHIWH [Compound 35],+++
3,"VWNATFHIWHD (not fully specified (N-terminus, C-terminus)) [Compound 6, likely pa-11mer]",++
4,VCNACFHIWH [Compound 56],+

# Same assay, conditions: 100 μM; Table 3, control vehicle; first symbol
row,Sequence,"Activity (μM) 100, p62/actin assay activity"
1,VCNACFHIWH [Compound 4],+++
2,"VWNATFHIWHD (not fully specified (N-terminus, C-terminus)) [Compound 6, likely pa-11mer]",0/0

# Same assay, conditions: 100 μM; Table 6, control DMSO; first symbol
row,Sequence,"Activity (μM) 100, p62/actin assay activity"
1,VCNATCHIWH [Compound 21],+++
2,VCNATCHIWH [Compound 18],0/0
3,VCNATCHIWH [Compound 23],+++
4,VCNATCHIWH [Compound 20],+++

# Same assay, conditions: 100 μM; Table 7, control compound T25; first symbol
row,Sequence,"Activity (μM) 100, p62/actin assay activity"
1,VCNACFHIWH [Compound 4],+++/+++

# Same assay, conditions: 100 μM; Table 8, control compound T25; first symbol
row,Sequence,"Activity (μM) 100, p62/actin assay activity"
1,VCNATCHIWH [Compound 34],+++/+++
2,VCNATCHIWH [Compound 35],+++
3,"VWNATFHIWHD (not fully specified (N-terminus, C-terminus)) [Compound 6, likely pa-11mer]",0/0

# Same assay, conditions: Table 8; 10 μM marked * (footnote: data taken at 20 instead of 30 μM); first symbol
row,Sequence,"Activity (μM) 10, starred cell, p62/actin assay activity"
1,"VWNATFHIWHD (not fully specified (N-terminus, C-terminus)) [Compound 6, likely pa-11mer]",0/0*

# Same assay, conditions: Table 8; *Data taken at 20 instead of 30 μM; first symbol
row,Sequence,"Activity (μM) 30, starred cell, p62/actin assay activity"
1,"VWNATFHIWHD [63] (not fully specified (N-terminus, C-terminus)) [Compound 63]",0

# Test system: LC3
# Assay: LC3 marker assay (LC3-I to LC3-II conversion immunoblot);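 as to Activity (μM) 10, LC3 assay activity: HeLa cells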;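 as to Activity (μM) 100, LC3 assay activity: HeLa cells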;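 as to Activity (μM) 20, LC3 assay activity: HeLa cells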;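 as to Activity (μM) 30, LC3 assay activity: HeLa cells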;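 as to Activity (μM) 50, LC3 assay activity: HeLa cells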
# Format: cell-based
# Set-up: key: −: activity not reported; 0: decreased vs. WT; +: similar to WT; ++: modest increase vs. WT; +++: significant increase vs. WT
# Settings: 5 μM; Table 8, control compound T25; second symbol
# Experimental: as §1, §2
row,Sequence,"Activity (μM) 5, LC3 assay activity"
1,VCNATCHIWH [Compound 34],0/0

# Same assay, conditions: 10 μM; Table 3, control vehicle; second symbol of cell
row,Sequence,"Activity (μM) 10, LC3 assay activity"
1,VCNACFHIWH [Compound 4],0/0
2,"VWNATFHIWHD (not fully specified (N-terminus, C-terminus)) [Compound 6, likely pa-11mer]",0/0
3,"YGRKKRRQRRRGGVWNATFHIWHD [7] (Ac-YGRKKRRQRRRGGVWNATFHIWHD-NH2) [Compound 7, likely Tat-11mer]",++

# Same assay, conditions: 10 μM; Table 6, control DMSO; second symbol
row,Sequence,"Activity (μM) 10, LC3 assay activity"
1,VCNATCHIWH [Compound 21],0
2,VCNATCHIWH [Compound 18],0/0
3,VCNATCHIWH [Compound 23],0
4,VCNATCHIWH [Compound 20],++/++

# Same assay, conditions: 10 μM; Table 8, control compound T25; second symbol
row,Sequence,"Activity (μM) 10, LC3 assay activity"
1,VCNATCHIWH [Compound 34],0/0
2,VCNATCHIWH [Compound 35],0/0
3,"VWNATFHIWHD [63] (not fully specified (N-terminus, C-terminus)) [Compound 63]",+
4,VCNACFHIWH [Compound 56],0/0

# Same assay, conditions: 20 μM; Table 3, control vehicle; second symbol
row,Sequence,"Activity (μM) 20, LC3 assay activity"
1,VCNACFHIWH [Compound 4],0/0
2,"VWNATFHIWHD (not fully specified (N-terminus, C-terminus)) [Compound 6, likely pa-11mer]",0/0
3,"YGRKKRRQRRRGGVWNATFHIWHD [7] (Ac-YGRKKRRQRRRGGVWNATFHIWHD-NH2) [Compound 7, likely Tat-11mer]",+++/+++

# Same assay, conditions: 30 μM; Table 6, control DMSO; second symbol
row,Sequence,"Activity (μM) 30, LC3 assay activity"
1,VCNATCHIWH [Compound 21],0
2,VCNATCHIWH [Compound 18],0/0
3,VCNATCHIWH [Compound 23],++/++
4,VCNATCHIWH [Compound 20],++

# Same assay, conditions: 30 μM; Table 7, control compound T25; second symbol
row,Sequence,"Activity (μM) 30, LC3 assay activity"
1,VCNACFHIWH [Compound 4],0/0

# Same assay, conditions: 30 μM; Table 8, control compound T25; second symbol
row,Sequence,"Activity (μM) 30, LC3 assay activity"
1,VCNATCHIWH [Compound 34],++
2,VCNATCHIWH [Compound 35],+
3,"VWNATFHIWHD (not fully specified (N-terminus, C-terminus)) [Compound 6, likely pa-11mer]",0/0
4,VCNACFHIWH [Compound 56],0

# Same assay, conditions: 50 μM; Table 3, control vehicle; second symbol
row,Sequence,"Activity (μM) 50, LC3 assay activity"
1,VCNACFHIWH [Compound 4],0/0
2,"VWNATFHIWHD (not fully specified (N-terminus, C-terminus)) [Compound 6, likely pa-11mer]",0/0

# Same assay, conditions: 50 μM; Table 6, control DMSO; second symbol
row,Sequence,"Activity (μM) 50, LC3 assay activity"
1,VCNATCHIWH [Compound 21],0
2,VCNATCHIWH [Compound 18],0/0
3,VCNATCHIWH [Compound 23],++
4,VCNATCHIWH [Compound 20],++

# Same assay, conditions: 50 μM; Table 7, control compound T25; second symbol
row,Sequence,"Activity (μM) 50, LC3 assay activity"
1,VCNACFHIWH [Compound 4],++/++

# Same assay, conditions: 50 μM; Table 8, control compound T25; second symbol
row,Sequence,"Activity (μM) 50, LC3 assay activity"
1,VCNATCHIWH [Compound 34],+++/+++
2,VCNATCHIWH [Compound 35],++
3,"VWNATFHIWHD (not fully specified (N-terminus, C-terminus)) [Compound 6, likely pa-11mer]",0
4,VCNACFHIWH [Compound 56],0

# Same assay, conditions: 100 μM; Table 3, control vehicle; second symbol
row,Sequence,"Activity (μM) 100, LC3 assay activity"
1,VCNACFHIWH [Compound 4],+
2,"VWNATFHIWHD (not fully specified (N-terminus, C-terminus)) [Compound 6, likely pa-11mer]",0/0

# Same assay, conditions: 100 μM; Table 6, control DMSO; second symbol
row,Sequence,"Activity (μM) 100, LC3 assay activity"
1,VCNATCHIWH [Compound 21],0
2,VCNATCHIWH [Compound 18],0/0
3,VCNATCHIWH [Compound 23],++
4,VCNATCHIWH [Compound 20],++

# Same assay, conditions: 100 μM; Table 7, control compound T25; second symbol
row,Sequence,"Activity (μM) 100, LC3 assay activity"
1,VCNACFHIWH [Compound 4],+++/+++

# Same assay, conditions: 100 μM; Table 8, control compound T25; second symbol
row,Sequence,"Activity (μM) 100, LC3 assay activity"
1,VCNATCHIWH [Compound 34],+++/+++
2,VCNATCHIWH [Compound 35],++
3,"VWNATFHIWHD (not fully specified (N-terminus, C-terminus)) [Compound 6, likely pa-11mer]",0/0

# Same assay, conditions: Table 8; 10 μM marked * (footnote: data taken at 20 instead of 30 μM); second symbol
row,Sequence,"Activity (μM) 10, starred cell, LC3 assay activity"
1,"VWNATFHIWHD (not fully specified (N-terminus, C-terminus)) [Compound 6, likely pa-11mer]",0/0*

# Same assay, conditions: Table 8; *Data taken at 20 instead of 30 μM; second symbol
row,Sequence,"Activity (μM) 30, starred cell, LC3 assay activity"
1,"VWNATFHIWHD [63] (not fully specified (N-terminus, C-terminus)) [Compound 63]",+++
